How the values were obtained:
[1] = molecular target: T1, Peroxisome proliferator-activated receptor gamma (Homo sapiens, UniProt P37231)
T1 sequence (P37231 whole entry): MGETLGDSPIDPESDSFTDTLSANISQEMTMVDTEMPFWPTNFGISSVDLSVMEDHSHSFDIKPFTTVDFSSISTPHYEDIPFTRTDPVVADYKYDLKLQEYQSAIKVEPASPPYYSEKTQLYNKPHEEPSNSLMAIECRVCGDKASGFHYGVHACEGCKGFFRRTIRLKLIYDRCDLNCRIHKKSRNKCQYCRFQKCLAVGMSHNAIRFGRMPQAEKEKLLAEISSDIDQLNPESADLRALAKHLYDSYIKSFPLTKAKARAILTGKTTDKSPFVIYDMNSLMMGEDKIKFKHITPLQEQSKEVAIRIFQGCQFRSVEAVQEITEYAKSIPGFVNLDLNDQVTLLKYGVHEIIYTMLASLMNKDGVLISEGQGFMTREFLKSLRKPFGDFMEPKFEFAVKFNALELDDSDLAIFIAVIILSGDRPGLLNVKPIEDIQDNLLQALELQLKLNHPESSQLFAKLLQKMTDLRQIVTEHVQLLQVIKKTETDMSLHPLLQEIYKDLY
Description: In vitro agonist efficacy against PPAR gamma along with 100 nM BRL-49653

[2] = molecular target: T2, Retinoic acid receptor alpha (Homo sapiens, UniProt P10276); experiment: Binding affinity against RAR alpha receptor using [3H]ATRA as radioligand in CV-1 cells; assay type: cell-based, Cercopithecidae
T2 sequence (P10276 whole entry): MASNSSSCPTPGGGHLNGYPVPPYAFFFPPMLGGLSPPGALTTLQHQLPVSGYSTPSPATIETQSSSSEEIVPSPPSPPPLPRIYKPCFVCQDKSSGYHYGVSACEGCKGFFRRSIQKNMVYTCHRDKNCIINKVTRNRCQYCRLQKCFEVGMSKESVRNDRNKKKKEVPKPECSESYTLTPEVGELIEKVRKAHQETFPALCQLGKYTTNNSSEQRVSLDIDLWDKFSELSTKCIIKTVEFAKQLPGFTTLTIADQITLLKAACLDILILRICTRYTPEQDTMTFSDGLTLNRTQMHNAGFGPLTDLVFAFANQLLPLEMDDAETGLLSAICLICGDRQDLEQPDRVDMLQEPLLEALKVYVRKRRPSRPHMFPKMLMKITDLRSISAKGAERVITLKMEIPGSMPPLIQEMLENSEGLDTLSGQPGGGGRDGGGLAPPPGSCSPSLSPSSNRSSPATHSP

[3] = molecular target: T3, Retinoic acid receptor RXR-alpha (Homo sapiens, UniProt P19793); experiment: biochemical
T3 sequence (P19793 whole entry): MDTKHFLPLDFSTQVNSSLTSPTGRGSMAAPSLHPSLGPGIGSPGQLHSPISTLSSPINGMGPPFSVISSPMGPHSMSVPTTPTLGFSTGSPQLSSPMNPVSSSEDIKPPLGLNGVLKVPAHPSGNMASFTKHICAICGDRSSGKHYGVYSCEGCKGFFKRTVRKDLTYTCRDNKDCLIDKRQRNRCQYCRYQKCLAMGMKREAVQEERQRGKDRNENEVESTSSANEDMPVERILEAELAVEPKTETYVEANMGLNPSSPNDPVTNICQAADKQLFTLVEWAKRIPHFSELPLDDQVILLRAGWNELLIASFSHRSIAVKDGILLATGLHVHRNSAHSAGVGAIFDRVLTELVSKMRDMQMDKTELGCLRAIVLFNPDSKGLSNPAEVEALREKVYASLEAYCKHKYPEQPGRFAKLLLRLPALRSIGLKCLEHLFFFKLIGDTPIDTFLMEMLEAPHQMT
Description: Binding affinity against RXR alpha receptor using [3H]9-cis-RA as radioligand in CV-1 cells

[4] = molecular target: T1, Peroxisome proliferator-activated receptor gamma; remark: listed apart in the source
Description: In vitro agonistic activity against PPAR gamma along with 100 nM BRL-49653

[5] = molecular target: T4, Retinoic acid receptor RXR-gamma (Homo sapiens, UniProt P48443); experiment: Binding affinity against RXR gamma receptor using [3H]9-cis-RA as radioligand in CV-1 cells; assay type: cell-based, Cercopithecidae
T4 sequence (P48443 whole entry): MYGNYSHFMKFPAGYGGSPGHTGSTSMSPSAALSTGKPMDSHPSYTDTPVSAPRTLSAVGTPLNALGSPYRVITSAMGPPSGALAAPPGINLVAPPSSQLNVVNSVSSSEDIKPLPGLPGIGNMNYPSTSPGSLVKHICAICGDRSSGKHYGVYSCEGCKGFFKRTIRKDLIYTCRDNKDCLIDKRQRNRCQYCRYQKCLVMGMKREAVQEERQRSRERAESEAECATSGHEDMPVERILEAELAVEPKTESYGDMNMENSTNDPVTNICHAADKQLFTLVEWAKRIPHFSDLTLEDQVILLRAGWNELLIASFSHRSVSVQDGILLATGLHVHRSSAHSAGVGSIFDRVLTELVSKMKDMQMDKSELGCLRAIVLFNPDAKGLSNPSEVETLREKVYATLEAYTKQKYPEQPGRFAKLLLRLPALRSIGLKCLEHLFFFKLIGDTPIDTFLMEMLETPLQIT

[6] = molecular target: T3, Retinoic acid receptor RXR-alpha; experiment: In vitro antagonist activity against RXR alpha in CV-1 cells; assay type: functional, cell-based, Cercopithecidae
[7] = molecular target: T5, Retinoic acid receptor alpha (Homo sapiens) (UniProt P10276); experiment: Agonist synergy against RAR alpha was tested along with 3 nM TTNPB; assay type: functional; conditions: Cercopithecidae
T5 sequence (whole entry): T2 sequence (P10276 whole entry)

[8] = molecular target: T6, Retinoic acid receptor beta (Homo sapiens, UniProt P10826); experiment: Binding affinity against RAR beta receptor using [3H]ATRA as radioligand in CV-1 cells; assay type: cell-based, Cercopithecidae
T6 sequence (P10826 whole entry): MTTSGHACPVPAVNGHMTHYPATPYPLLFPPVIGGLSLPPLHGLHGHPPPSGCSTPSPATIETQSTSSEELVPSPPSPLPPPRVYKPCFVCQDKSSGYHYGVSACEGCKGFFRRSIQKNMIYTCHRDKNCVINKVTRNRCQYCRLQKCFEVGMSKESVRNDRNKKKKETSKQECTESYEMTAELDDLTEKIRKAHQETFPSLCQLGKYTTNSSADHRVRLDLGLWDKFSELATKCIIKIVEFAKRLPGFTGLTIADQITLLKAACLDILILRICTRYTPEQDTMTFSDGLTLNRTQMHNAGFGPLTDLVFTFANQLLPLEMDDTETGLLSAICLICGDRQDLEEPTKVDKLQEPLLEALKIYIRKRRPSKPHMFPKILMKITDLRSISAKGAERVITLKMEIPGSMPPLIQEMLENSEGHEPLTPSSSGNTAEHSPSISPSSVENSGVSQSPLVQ

[9] = molecular target: T7, Retinoic acid receptor gamma (Homo sapiens, UniProt P13631); experiment: Binding affinity against RAR gamma receptor using [3H]ATRA as radioligand in CV-1 cells; assay type: cell-based, Cercopithecidae
T7 sequence (P13631 whole entry): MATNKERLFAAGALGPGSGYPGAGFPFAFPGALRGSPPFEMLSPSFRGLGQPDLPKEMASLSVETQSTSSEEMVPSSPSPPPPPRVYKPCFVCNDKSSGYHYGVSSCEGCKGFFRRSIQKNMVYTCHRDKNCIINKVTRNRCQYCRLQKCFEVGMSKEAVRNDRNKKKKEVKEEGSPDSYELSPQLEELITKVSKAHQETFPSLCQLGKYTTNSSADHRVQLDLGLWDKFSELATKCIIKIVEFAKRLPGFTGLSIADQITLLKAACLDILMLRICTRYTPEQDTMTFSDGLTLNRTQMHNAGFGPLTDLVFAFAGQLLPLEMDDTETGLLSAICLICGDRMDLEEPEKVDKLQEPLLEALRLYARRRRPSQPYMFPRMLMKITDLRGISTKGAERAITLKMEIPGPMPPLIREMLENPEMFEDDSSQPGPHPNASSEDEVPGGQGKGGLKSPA

[10] = molecular target: T8, Retinoic acid receptor RXR-beta (Homo sapiens, UniProt P28702); experiment: Displacement of [3H]9-cis-RA from RXR beta receptor in CV-1 cells; assay type: cell-based, Cercopithecidae
T8 sequence (P28702 whole entry): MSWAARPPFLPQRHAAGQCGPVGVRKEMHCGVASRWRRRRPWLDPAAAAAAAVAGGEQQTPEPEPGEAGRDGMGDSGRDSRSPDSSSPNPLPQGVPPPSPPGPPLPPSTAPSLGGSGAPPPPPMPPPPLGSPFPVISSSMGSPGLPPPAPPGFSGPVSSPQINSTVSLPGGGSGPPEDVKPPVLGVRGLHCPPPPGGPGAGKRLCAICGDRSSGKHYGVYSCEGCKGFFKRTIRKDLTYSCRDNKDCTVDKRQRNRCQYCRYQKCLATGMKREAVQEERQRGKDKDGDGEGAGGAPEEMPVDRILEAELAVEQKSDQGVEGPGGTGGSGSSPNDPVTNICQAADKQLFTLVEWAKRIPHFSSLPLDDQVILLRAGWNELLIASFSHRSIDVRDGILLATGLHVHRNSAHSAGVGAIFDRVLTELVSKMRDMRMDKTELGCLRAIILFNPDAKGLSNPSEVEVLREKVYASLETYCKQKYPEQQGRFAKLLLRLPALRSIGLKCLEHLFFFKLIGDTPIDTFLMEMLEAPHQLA

## CCC(C)(C)c1cc(\C(C)=C(F)/C=C/C(C)=C/C(=O)O)c(OCC(F)F)c(C(C)(C)CC)c1
[1]
  EC50: 51 nM
[2]
  Ki: 6590 nM
[3]
  Ki: 28.7 nM
[4]
  EC50: 2.7 nM
[5]
  Ki: 40.3 nM
[6]
  IC50: 13.7 nM
[7]
  Synergy: 1.5 nM
[8]
  Ki: 5330 nM
[9]
  Ki: > 10000 nM
[10]
  Ki: 5.2 nM

## C/C(=C/C=C/C(C)=C/C(=O)O)c1cc(-c2cccs2)cc(C(C)C)c1OCC(F)F
[1]
  EC50: 15 nM
[2]
  Ki: 4550 nM
[3]
  Ki: 0.8 nM
[4]
  EC50: 4.7 nM
[5]
  Ki: 5.6 nM
[6]
  IC50: 1.9 nM
[7]
  Synergy: 1.4 nM
[8]
  Ki: 2110 nM
[9]
  Ki: > 10000 nM
[10]
  Ki: 3.9 nM

## CCCCOc1c(\C(C)=C/C=C/C(C)=C/C(=O)O)cc(C(F)(F)C(F)(F)F)cc1C(C)C
[1]
  EC50: 71 nM
[2]
  Ki: 2750 nM
[3]
  Ki: 21.4 nM
[4]
  EC50: 7.4 nM
[5]
  Ki: 45.7 nM
[6]
  IC50: 4 nM
[7]
  Synergy: 1.2 nM
[8]
  Ki: 2270 nM
[9]
  Ki: > 10000 nM
[10]
  Ki: 8.2 nM

## CC(/C=C/C(F)=C(/C)c1cc(C(C)(C)C)cc(C(C)(C)C)c1OCC(F)(F)F)=C\C(=O)O
[1]
  EC50: 30 nM
[2]
  Ki: 4660 nM
[3]
  Ki: 4.1 nM
[4]
  EC50: 12.2 nM
[5]
  Ki: 12.4 nM
[6]
  IC50: 7.2 nM
[7]
  Synergy: 1.5 nM
[8]
  Ki: 6010 nM
[9]
  Ki: > 10000 nM
[10]
  Ki: 15.5 nM

## C/C(=C/C=C/C(C)=C/C(=O)O)c1cc(C(C)C)cc(-c2ccccc2)c1OCC(F)F
[1]
  EC50: 78 nM
[2]
  Ki: 4660 nM
[3]
  Ki: 6.1 nM
[4]
  EC50: 16.3 nM
[5]
  Ki: 22.5 nM
[6]
  IC50: 57.9 nM
[7]
  Synergy: 1 nM
[8]
  Ki: 2610 nM
[9]
  Ki: > 10000 nM
[10]
  Ki: 12.3 nM

## CCCOc1c(\C(C)=C/C=C/C(C)=C/C(=O)O)cc(C(F)(F)C(F)(F)F)cc1C(C)C
[1]
  EC50: 59 nM
[2]
  Ki: 2500 nM
[3]
  Ki: 25.6 nM
[4]
  EC50: 2.7 nM
[5]
  Ki: 27.6 nM
[6]
  IC50: 5.1 nM
[7]
  Synergy: 1.4 nM
[8]
  Ki: 1980 nM
[9]
  Ki: > 1000 nM
[10]
  Ki: 17.2 nM

## CCCCOc1c(\C(C)=C(F)/C=C/C(C)=C/C(=O)O)cc(C(C)C)cc1C(C)C
[1]
  EC50: 47 nM
[2]
  Ki: 3730 nM
[3]
  Ki: 4.4 nM
[4]
  EC50: 4.1 nM
[5]
  Ki: 27.8 nM
[6]
  IC50: 4.7 nM
[7]
  Synergy: 1.5 nM
[8]
  Ki: 4620 nM
[9]
  Ki: > 10000 nM
[10]
  Ki: 24.4 nM

## Cc1cc2c(cc1C1(c3ccc(C(=O)O)cn3)CC1)C(C)(C)CCC2(C)C
[5]
  Ki: 12 nM
[7]
  Synergy: 6.9 nM
[10]
  Ki: 75 nM

## C/C(=C/C=C/C(C)=C/C(=O)O)c1cc(-c2cc(F)cc(F)c2)cc(C(C)C)c1OCC(F)F
[1]
  EC50: 40 nM
[2]
  Ki: > 10000 nM
[3]
  Ki: 2.6 nM
[4]
  EC50: 2.7 nM
[5]
  Ki: 2.8 nM
[6]
  IC50: 4.6 nM
[7]
  Synergy: 0.8 nM
[8]
  Ki: 1960 nM
[9]
  Ki: > 10000 nM
[10]
  Ki: 2.4 nM

## CC(/C=C/[C@@H]1C[C@]1(C)c1ccc2c(c1)C(C)(C)CCC2(C)C)=C\C(=O)O [IRX-4204]
[1]
  EC50: 54 nM
[4]
  EC50: 8.6 nM
[7]
  Synergy: 1.9 nM

Source: ChEMBL document CHEMBL1136440, “Design and synthesis of novel RXR-selective modulators with improved pharmacological profile” (Bioorg Med Chem Lett, 2003)
